Where two headings read alike, the source gives them in different places. Values belong to the compound of their own block, whether it stands above or below them.
Experiments:
HIV-1 strain HTLVIIIB = assay: Inhibition of HIV-1 HTLVIIIB replication in PBMC (p24 antigen EIA); format: cell-based; settings: HIV-1 strain HTLVIIIB in human PBMC, p24 EIA on 7th day after infection; for IC50: read-out: IC50 [HTL VIIIB]
Method: The cells were then infected with virus at a multiplicity of infection (MOI) of 0.1 during a one-hour adsorption period at 37° C. in a humidified 5% CO2 atmosphere. Subsequently, cells were cultured in 96-well microplates (100 μL/well; 2×10^6 cells/mL, triplicate wells) in the presence of various inhibitor concentrations. […] Ag. […] The applied p24 EIA was the unmodified kinetic assay commercially available from Coulter Corporation/Immunotech, Inc. (Westbrook, Me.).
To test the therapeutic activity of the compounds of the invention, p24 assays were utilized as previously described. […] 1 during a one-hour adsorption period at 37° C. in a humidified 5% CO2 atmosphere. Subsequently, cells were cultured in 96-well microliter plates ([…]; 2×10^6 cells/mL, triplicate wells) in the presence of various inhibitor concentrations. Aliquots of culture supernatants were removed from the wells on the 7th day after infection for p24 antigen p24 enzyme immunoassays (EIA).
The applied p24 EIA was the unmodified kinetic assay commercially available from Coulter Corporation/Immunotech, Inc. (Westbrooke, Me.), which utilizes a murine monoclonal antibody to HIV core protein coated onto microwell strips to which the antigen present in the test culture supernatant samples binds. Percent inhibition of viral replication was calculated by comparing the p24 values from the test substance treated infected cells with p24 values from untreated infected cells (i.e., virus controls).

[1] = system: human peripheral blood mononuclear cells (PBMC); assay: Microculture Tetrazolium Assay (MTA, XTT) for cell viability of non-infected PBMC; format: cell-based; settings: 7 days, read-out: CC (cytotoxic concentration, CC50)
Method: In parallel, the effects of various treatments on cell viability were also examined, as described in Enrice et.al., supra. In brief, non-infected PBNWC were treated with each compound for 7 days under identical experimental conditions. A Microculture Tetrazolium Assay (MTA), using 2,3-bis(2-methoxy-4nitro-5-sulfophenyl)-5-[(phenylarnino)-carbonyl]-2H-tetrazolium hydroxide (XTT), was performed to quantitate cellular proliferation.

[2] = system: HIV-1 strain RT-MDR (V106A); assay: Inhibition of replication of NNI-resistant HIV-1 strain RT-MDR in H9 cells; format: cell-based
Method: (§1) The ability of Compounds 4 (HI-516), 11 (HI-566), and 12 (HI-565) to inhibit the replication of NNI-resistant HIV-1 strains, A17 (Y181C) and RT-MDR (V106A), was analyzed. The anti-HIV activity of the compounds was measured by determining their ability to inhibit the replication of HIV-1 strains A17 in PBMC from healthy volunteer donors and RT-MDR in H9 cells.
(§2) Compounds 4, 11, and 12 were compared with nevirapine or delavirdine, two known non-nucleoside reverse transcriptase inhibitors of HIV-1 RT.

HIV-1 strain A17 (Y181C) = assay: Inhibition of replication of NNI-resistant HIV-1 strain A17 in PBMC; format: cell-based; settings: for IC50: read-out: IC50 A17 (Y181C)
Method: as §1, §2

[3] = RT-MDR in H9 cells, read-out: IC50 RT-MDR (V106A)
[4] = A17 in PBMC from healthy volunteer donors
[5] = Human immunodeficiency virus 1, H9, read-out: IC50 RT-MDR (V106A)
[6] = Human immunodeficiency virus 1, PBMC

SMILES: S=C(NCCN1CCCCC1)Nc1ccccn1 [Compound 1]
IC50 (HIV-1 strain HTLVIIIB): > 100000 nM

SMILES: S=C(NCCN1CCCCC1)Nc1ccc(Br)cn1 [Compound 2, N-[2-(1-piperidinylethyl)]-N′-[2-(5-bromopyridyl)]-thiourea]
IC50 [HTL VIIIB] (HIV-1 strain HTLVIIIB): nanomolar concentrations
IC50 (HIV-1 strain HTLVIIIB): 2 nM

SMILES: CC1CCCN(CCNC(=S)Nc2ccc(Br)cn2)C1 (stereo not drawn) [Compound 3, N-[2-(3-methylpiperidinylethyl)]-N′-[2-(5-bromopyridyl)]-thiourea]
IC50 (HIV-1 strain HTLVIIIB): 80 nM

SMILES: CC1CCCCN1CCNC(=S)Nc1ccc(Br)cn1 (stereo not drawn) [Compound 4, N-[2-(2-methylpiperidinylethyl)]-N′-[2-(5-bromopyridyl)]-thiourea]
IC50 (HIV-1 strain HTLVIIIB): < 1 nM
CC50 [1]: 50 µM
IC50 RT-MDR (V106A) ([2]; RT-MDR in H9 cells): less active than nevirapine or delavirdine
IC50 [2, 3]: 1900 nM
IC50 A17 (Y181C) (HIV-1 strain A17 (Y181C); [4]): not active
IC50 (HIV-1 strain A17 (Y181C); [4]): > 100 µM

SMILES: S=C(NCCN1CCCCC1)Nc1ccc(Cl)cn1 [Compound 5, N-[2-(1-piperidinylethyl)]-N′-[2-(5-chloropyridyl)]-thiourea]
IC50 [HTL VIIIB] (HIV-1 strain HTLVIIIB): nanomolar concentrations
IC50 (HIV-1 strain HTLVIIIB): 1 nM

SMILES: CC1CCCN(CCNC(=S)Nc2ccc(Cl)cn2)C1 (stereo not drawn) [Compound 6, N-[2-(3-methylpiperidinylethyl)]-N′-[2-(5-chloropyridyl)]-thiourea]
IC50 (HIV-1 strain HTLVIIIB): 20 nM

IC50 (HIV-1 strain HTLVIIIB; Human immunodeficiency virus 1): 1 nM
melting point: 117 to 118 °C
SMILES: CC1CCCCN1CCCNC(=S)Nc1ccc(Cl)cn1 (stereo not drawn) [Compound 7, N-[3-(2-methylpiperidinylpropyl)]-N′-[2-(5-chloropyridyl)]-thiourea]

SMILES: S=C(NCCOc1ccccc1)Nc1ccccn1 [Compound 8, N-[2-(Phenoxy)ethyl]-N′-[2-(pyridyl)]thiourea]
IC50 (HIV-1 strain HTLVIIIB): 5 nM
CC50 [1]: 55 µM

SMILES: S=C(NCCOc1ccccc1)Nc1ccc(Cl)cn1 [Compound 9, N-[2-(Phenoxy)ethyl]-N′-[2-(5-chloropyridyl)]thiourea]
IC50 (HIV-1 strain HTLVIIIB): 4 nM
CC50 [1]: > 100 µM

SMILES: S=C(NCCOc1ccccc1)Nc1ccc(Br)cn1 [Compound 10, N-[2-(Phenoxy)ethyl]-N′-[2-(5-bromopyridyl)] thiourea]
IC50 (HIV-1 strain HTLVIIIB): 5 nM
CC50 [1]: 92 µM

SMILES: FC(CNC(=S)Nc1ccc(Cl)cn1)c1ccccc1 (stereo not drawn) [Compound 11, β-Fluoro[2-phenethyl]-N′-[2-(5-chloropyridyl)] thiourea]
IC50 [HTL VIIIB] (HIV-1 strain HTLVIIIB): subnanomolar
IC50 (HIV-1 strain HTLVIIIB): < 1 nM
CC50 [1]: 30 µM
IC50 RT-MDR (V106A) ([2]; RT-MDR in H9 cells): submicromolar
IC50 [2, 3]: 100 nM
IC50 (HIV-1 strain A17 (Y181C); [4]): 0.1 µM

SMILES: FC(CNC(=S)Nc1ccc(Br)cn1)c1ccccc1 (stereo not drawn) [Compound 12, β-Fluoro[2-phenethyl]-N′-[2-(5-bromopyridyl)]thiourea]
IC50 [HTL VIIIB] (HIV-1 strain HTLVIIIB): subnanomolar
IC50 (HIV-1 strain HTLVIIIB): < 1 nM
CC50 [1]: 50 µM
IC50 RT-MDR (V106A) ([2]; RT-MDR in H9 cells): submicromolar
IC50 [2, 3]: 200 nM
IC50 (HIV-1 strain A17 (Y181C); [4]): 0.1 µM

SMILES: CC(C)Nc1cccnc1N1CCN(C(=O)c2cc3cc(NS(C)(=O)=O)ccc3[nH]2)CC1 [Delavirdine, reference compound]
IC50 [2, 5]: 400 nM
IC50 (HIV-1 strain A17 (Y181C); [6]): 50 µM

SMILES: Cc1ccnc2c1NC(=O)c1cccnc1N2C1CC1 [Nevirapine, reference compound]
IC50 [2, 5]: 1400 nM
IC50 (HIV-1 strain A17 (Y181C); [6]): 21.4 µM

SMILES: S=C(NCCc1ccccn1)Nc1ccc(Br)cn1 [Trovirdine, reference compound]
IC50 (HIV-1 strain HTLVIIIB): 7 nM
CC50 [1]: 100 µM
